Patent US9101565B2, “Dissolution stability of calcium carbonate tablets” (TAKEDA NYCOMED AS, priority 2008, dated 2015)

test: Test of compactability of different sugar alcohols (crushing strength vs compression force); assay type: physicochemical; details: pure sugar alcohol compacts, single punch press, punch and die lubricated with magnesium stearate; FIG. 1
Description: Tablets comprising either Neosorb P100T, Sorbidex P1666BO, Isomalt ST-PF, Maltisorb P90, Mannitol 60 or Xylitol CM50 were compressed on an instrumented Fette Exacta 1/F single punch tablet press, only maximum compression force on the upper punch was recorded.
Before the compression of each tablet the punch tips and the die bore were lubricated with a 5% suspension of magnesium stearate in acetone. The acetone was allowed to evaporate before compression of the tablet.
The sugar alcohol was weighed, transferred to the die bore and then compressed, see table 1. Immediately after ejection the tablet was tested for crushing strength.
From FIG. 1 (each point is the average of three measurements) it is seen that the assumption was correct. Therefore, test of particle size was not repeated for the other sugar alcohols.
The tabletting machine used is equipped with data acquisition that as a minimum measure the compaction force applied. However, any tabletting machine may be used provided the compaction force applied can be measured.
The crushing strength has been measured by use of a Schleuniger-2E from the company Dr. Schleuniger and determined as the mean of measuring the crushing strength for 10 individual tablets.

Compound	compactability (slope of the correlation between compression force and crushing strength)
OC[C@@H](O)[C@@H](O[C@H]1O[C@H](CO)[C@@H](O)[C@H](O)[C@H]1O)[C@H](O)[C@@H](O)CO [Maltitol]	very poor compactability
OC[C@@H](O)[C@@H](O)[C@H](O)[C@@H](O)CO [sorbitol, Sorbitol]	best compactability
OC[C@@H](O)[C@H](O)[C@@H](O)CO [xylitol, Xylitol]	very poor compactability
OC[C@@H](O)[C@@H](O)[C@H](O)[C@H](O)CO [mannitol, Mannitol]	very poor compactability
Isomalt	Sorbitol is followed by isomalt

same assay, conditions: two mean particle sizes, 38 μm and 110 μm; FIG. 1

Compound	tablet crushing strength, dependence on particle size
OC[C@@H](O)[C@@H](O)[C@H](O)[C@@H](O)CO [sorbitol, Sorbitol]	independent of particle size
